Measured values from US8524654B2, “Prolyl endopeptidase inhibitors for reducing or preventing neutrophilic inflammation” (The UAB Research Foundation, priority 2007, dated 2013).
Entries after “also recorded” stand apart in the source; their conditions may differ. Residues, ends and D or L forms follow the SMILES beside them. *: point of attachment. Cbz = O=C(OCc1ccccc1)*

How the values were obtained:
[1] = test system: PGP production by CF sputum on type I collagen; experiment: Ex vivo collagen assay: PGP generation by pooled CF sputum with inhibitors; type: biochemical, human
Procedure: (§1) Electrospray ionization liquid chromatography-MS/MS. (ESI-LC/MS/MS) for PGP detection PGP and N-α-PGP were measured for in vitro and sputum samples using a MDS Sciex (Applied Biosystems, Foster City, Calif.) API-4000 spectrometer equipped with a Shimadzu HPLC. HPLC was done using a 2.1×150-mm Develosi C30 column (with buffer A: 0.1% formic acid, and buffer B: acetonitrile plus 0.1% formic acid); at 0-0.6 min, 80% buffer A/20% buffer B and at 0.6-5 min, the gradient is up to 0% buffer A/100% buffer B. Background was removed by flushing with 100% isopropanol plus 0.1% formic acid. Positive electrospray mass transitions were at 270-70 and 270-116 for PGP and 312-140 and 312-112 for N-α-PGP.
Ex vivo collagen assay. One hundred microliters of saline-diluted sputum was incubated with extensively dialyzed, intact type I or II collagen (50 μl, 1 mg/ml) for 24 h at 37° C. and 5% CO2. The samples were filtered through a 10-kDa filter, washed with 20 μl of 1 N HCl, and analyzed using ESI-LC-MS/MS for levels of PGP and N-αPGP. Amounts of PGP and N-α-PGP generated by each sputum sample were determined by subtracting basal levels already present in each sample.
For the inhibitor experiments, these pooled sputa were treated with noted inhibitor and allowed to incubate for 6 h. At 6 h, dialyzed collagen was added to the sample and sample was further incubated for 18 h. Inhibitor concentrations used were: MMP-8, -9, and -2 at 50 μM, PE at 100 μM, and doxycycline at 1 mM.

neutrophil = details: in vitro; cited from earlier work
[2] = test system: PGP production in murine airways; experiment: In vivo murine intratracheal protease administration, PGP in bronchoalveolar lavage fluid; design: species or system BALB/c mice; details: 50 μl, lavage 24 h later, ESI LC-MS/MS, vs PBS control
Procedure: In vivo PGP production was examined using MMPs or human neutrophil elastase (HNE) with or without PE. Various proteases (50 μl) were administered intratracheally into murine (4- to 6-wk-old BALB/c mice) airways and bronchoalveolar lavage fluid was collected 24 h later. PGP levels were determined using ESI LC-MS/MS. […] Number of mice per group=6.
as §1
In vivo murine administration. Mice underwent intratracheal protease administration as described in FIG. 5 legend. MMPs were preactivated using 1 mM aminophenylmercuric acetate for 2 hours at 37° C. The concentrations of proteases administered were: MMP-8, MMP-9, and MMP-12: 55.6 μg/kg; HNE: 200 μg/kg; and PE: 18.4 mg/kg. […]

CCCCCCCC/C=C\CCCCCCCC(=O)NO [MMP-2-specific inhibitor, cis-9-octadecenoyl-N-hydroxylamide]
inhibition of PGP production compared with CF sputum alone ([1]; MMP-8, -9, -2 inhibitors at 50 μM, 6 h with pooled CF sputum, then type I collagen, 50 µM): minimal effects; also recorded: Neither MMP-2-nor HNE-specific inhibitors resulted in significant changes

O=CC1CCCN1C(=O)C1CCCN1C(=O)OCc1ccccc1 (stereo not drawn) [PE inhibitor, Z-prolyl prolinal] (Cbz-Pro-Pro-aldehyde; configuration not given here)
inhibition of PGP production compared with CF sputum alone ([1]; PE inhibitor at 100 μM, 6 h with pooled CF sputum, then type I collagen, 100 µM): completely blocked; also recorded: complete blockade

proline-glycine-proline [PGP]
potency as neutrophil chemoattractant relative to N-α-PGP (neutrophil): four to seven times less potent

CC(C)(C)C(=O)Oc1ccc(S(=O)(=O)Nc2ccccc2C(=O)NCC(=O)O)cc1 [HNE-specific inhibitor, N-(2-(4-(2,2-dimethylpropionyloxy)phenylsulfonylamino)benzoyl)aminoacetic acid N-(o-(p-pivaloyloxybenzene)sulfonylaminobenzoyl) glycine]
inhibition of PGP production compared with CF sputum alone ([1]; HNE inhibitor, concentration not given, pooled CF sputum, type I collagen): minimal effects; also recorded: Neither MMP-2-nor HNE-specific inhibitors resulted in significant changes

B1: HNE: Recombinant human neutrophil elastase (protein, UniProt P08246 30-267, looked up)
Neutrophil elastase: IVGGRRARPHAWPFMVSLQLRGGHFCGATLIAPNFVMSAAHCVANVNVRAVRVVLGAHNLSRREPTRQVFAVQRIFENGYDPVNLLNDIVILQLNGSATINANVQVAQLPAQGRRLGNGVQCLAMGWGLLGRNRGIASVLQELNVTVVTSLCRRSNVCTLVRGRQAGVCFGDSGSPLVCNGLIHGIASFVRGGCASGLYPDAFAPVAQFVNWIDSIIQRSEDNPCPHPRDPDPASRTH
PGP production in bronchoalveolar lavage fluid [2]: did not generate PGP
